Source: patent US20130184302A1, “METHODS FOR TREATING IRRITABLE BOWEL SYNDROME (IBS) AND INFECTIONS” (priority 2011, published 2013)
Where two headings read alike, the source gives them in different places.

How the values were obtained:
[1] = system: patients with non-constipation IBS (non-C IBS); assay: Adverse events and discontinuation, rifaximin 550 mg TID study; format: in vivo, human; details: 550 mg rifaximin TID
[2] = system: C. difficile infection (CDI); assay: CDI trial: number of unformed stools during the treatment period; format: in vivo, human
Source text: FIG. 18 sets for the average number of unformed stools per day of the study.

subjects with d-IBS = assay: Designed study of 14-day oral rifaximin 550 mg TID in d-IBS (Example 2); format: in vivo, human; details: oral rifaximin 550 mg TID 14 days
Source text: A measure of efficacy is based on subjects' answers to the Weekly Subject Global Assessment (SGA) questions over the 4 week study duration in relation to their IBS symptoms.

[3] = system: patients with diarrhea-predominant IBS; assay: IBS-QOL questionnaire, rifaximin 550 mg BID vs placebo in d-IBS; format: in vivo, human
Method: Both groups received placebo for an additional 14 days after the initial 2-week treatment. Quality of life was assessed with the 34-item IBS-QOL questionnaire at baseline and 4 weeks after initiating treatment. Each item was scored on a 5-point scale (1=not at all; 2=slightly; 3=moderately; 4=quite a bit; and 5=extremely or a great deal). Results for composite and subscale scores were converted to a scale ranging from 0 to 100, with higher scores indicating better QOL.
Following a 2-week initial treatment period, both groups of patients received placebo for an additional 14 days. Quality of life was assessed via the 34-item IBS-QOL questionnaire at baseline and 4 weeks after initiating treatment. Each item was scored on a 5-point scale (1=not at all; 2=slightly; 3=moderately; 4=quite a bit; 5=extremely or a great deal); results for composite and subscale scores were converted to a scale ranging from 0 to 100, with higher scores indicating better QOL.

[4] = system: C. difficile infection (CDI); assay: CDI trial: global cure of diarrhea; format: in vivo, human
Source text: Subjects having a global cure of diarrhea are set for the in Table 45. Global cure of diarrhea was defined as subjects who were cured of diarrhea at TOC without recurrence at follow up.

[5] = system: C. difficile infection (CDI); assay: CDI trial: enteric symptoms at TOC; format: in vivo, human
Source text: Table 41 sets forth a summary of the enteric symptoms at TOC.

[6] = system: patients with cirrhosis and overt HE episodes; assay: Rates of commonly-occurring infections and antibiotic use in cirrhotic patients with HE on long-term rifaximin; format: in vivo
Source text: Cirrhosis patients can have an increased risk of infections and subsequent hospitalizations, leading to increased mortality. […] A description of the OLM and RCT can be found in WO 2011/005388, “METHODS OF TREATING HEPATIC ENCEPHALOPATHY,” which is incorporated herein by reference in its entirety. In the analysis below, the effect of long term RFX treatment on infection rates and antibiotic use was examined.
Patients with cirrhosis and ≧2 overt HE episodes within 12 months were enrolled in the RCT (RFX=140; placebo [PBO]=159); 170 new patients, in addition to 70 RFX and 82 PBO patients who rolled over from the RCT were enrolled in OLM. The “All RFX group” (n=392) consisted of RFX-treated patients in both studies. Infection rates per person exposure years (PEY) were compared across RCT and All RFX groups, and antibiotic use over time was examined.
In the 6 month RCT, RFX exposure was 50 PEY vs 46 PEY in the PBO group. Long term RFX exposure was for median =427 (2-1427) days, or 510 PEY.

[7] = system: patients with diarrhea-predominant IBS; assay: Tolerability, adverse events, rifaximin 550 mg BID study; format: in vivo, human; details: rifaximin 550 mg BID 14 days
IBS patients = details: cited from earlier work
[8] = Rifaximin N = 117, Vancomycin N = 115
[9] = cured of diarrhea at TOC without recurrence at follow up, Rifaximin N = 117, Vancomycin N = 115
[10] = Rifaximin N = 108, Vancomycin N = 111
[11] = Pimentel, et al., responders/treated
[12] = Yang, et al, responders/treated

SMILES: CO[C@H]1/C=C/O[C@@]2(C)Oc3c(C)c(O)c4c(O)c(c5c(nc6cc(C)ccn65)c4c3C2=O)NC(=O)/C(C)=C\C=C\[C@H](C)[C@H](O)[C@@H](C)[C@@H](O)[C@@H](C)[C@H](OC(C)=O)[C@@H]1C [Rifaximin, (2S,16Z,18E,20S,21S,22R, 23R,24R,25S,26S,27S,28E)-5,6,21,23,25 Pentahydroxy-27-methoxy-2,4,11,16,20,22,24,26-octamethyl-2,7-(epoxypentadeca-(1,11,13)trienimino) benzofuro (4,5-e) pyrido(1,2,-a) benzimidazole-1,15(2H)-dione,25-acetate]
- Subjects with skin or subcutaneous tissue disorders [1]: 1.3%
- Adjusted mean number of unformed stools-ANOVA: Treatment Difference (95% CI) ([2]; Rifaximin vs Vancomycin, treatment period): 0.46 (−0.08, 1.00)
- Overall treatment difference in number of unformed stools-Mixed Model: Treatment Difference (95% CI) ([2]; Rifaximin vs Vancomycin, mixed effects model with treatment, center, study day as fixed effects): 0.32 (−0.08, 0.72)
- Adjusted mean number of unformed stools-ANOVA ([2]; during the treatment period, ANOVA model with treatment and center as main effects, Rifaximin N = 117, Vancomycin N = 115): 2.36
- Answers to weekly SGA question on adequate relief of IBS symptom of bloating (subjects with d-IBS): respond “Yes” more often
- Answers to weekly SGA question on adequate relief of IBS symptoms (subjects with d-IBS): respond “Yes” more often
- Mean Change From Baseline in IBS-QOL Scores at Week 4: Body image ([3]; Rifaximin 1100 mg/d (n = 191)): 20.1
- Mean Change From Baseline in IBS-QOL Scores at Week 4: Dysphoria ([3]; Rifaximin 1100 mg/d (n = 191)): 24.8
- Mean Change From Baseline in IBS-QOL Scores at Week 4: Food avoidance ([3]; Rifaximin 1100 mg/d (n = 191)): 25.0
- Mean Change From Baseline in IBS-QOL Scores at Week 4: Health worry ([3]; Rifaximin 1100 mg/d (n = 191)): 16.0
- Mean Change From Baseline in IBS-QOL Scores at Week 4: Interference with activity ([3]; Rifaximin 1100 mg/d (n = 191)): 22.2
- Mean Change From Baseline in IBS-QOL Scores at Week 4: Relationship ([3]; Rifaximin 1100 mg/d (n = 191)): 14.9
- Mean Change From Baseline in IBS-QOL Scores at Week 4: Sexual ([3]; Rifaximin 1100 mg/d (n = 191)): 13.6
- Mean Change From Baseline in IBS-QOL Scores at Week 4: Social reaction ([3]; Rifaximin 1100 mg/d (n = 191)): 17.3
- Mean Change From Baseline in IBS-QOL Scores at Week 4: Overall score ([3]; Rifaximin 1100 mg/d (n = 191), scale 0 to 100): 20.4
- Improvement with rifaximin over placebo, IBS-QOL: Body image ([3]; Week 4, 1100 mg/d): 37.4%
- Improvement with rifaximin over placebo, IBS-QOL: Dysphoria ([3]; Week 4, 1100 mg/d): 25.3%
- Improvement with rifaximin over placebo, IBS-QOL: Food avoidance ([3]; Week 4, 1100 mg/d): 22.1%
- Improvement with rifaximin over placebo, IBS-QOL: Health worry ([3]; Week 4, 1100 mg/d): 30.6%
- Improvement with rifaximin over placebo, IBS-QOL: Interference with activity ([3]; Week 4, 1100 mg/d): 22.2%
- Improvement with rifaximin over placebo, IBS-QOL: Overall score ([3]; Week 4, 1100 mg/d): 28.7%
- Improvement with rifaximin over placebo, IBS-QOL: Relationship ([3]; Week 4, 1100 mg/d): 39.5%
- Improvement with rifaximin over placebo, IBS-QOL: Sexual ([3]; Week 4, 1100 mg/d): 24.9%
- Improvement with rifaximin over placebo, IBS-QOL: Social reaction ([3]; Week 4, 1100 mg/d): 31.6%
- Global Cure of Diarrhea: No, number of subjects [4, 8]: 34
- Global Cure of Diarrhea: No, percent of subjects [4, 8]: (29%)
- Global Cure of Diarrhea: Treatment Difference ([4]; Rifaximin vs Vancomycin): −3.0%
- Global Cure of Diarrhea: Yes, number of subjects [4, 9]: 83
- Global Cure of Diarrhea: Yes, percent of subjects [4, 9]: (71%)
- Diarrhea: No, number of subjects [5, 10]: 86
- Diarrhea: No, percent of subjects [5, 10]: (80%)
- Diarrhea: Yes, number of subjects [5, 10]: 22
- Diarrhea: Yes, percent of subjects [5, 10]: (20%)
- Fever: No, number of subjects [5, 10]: 98
- Fever: No, percent of subjects [5, 10]: (91%)
- Fever: Yes, number of subjects [5, 10]: 10
- Fever: Yes, percent of subjects [5, 10]: (9%)
- Severe Abdominal Pain/Discomfort: No, number of subjects [5, 10]: 80
- Severe Abdominal Pain/Discomfort: No, percent of subjects [5, 10]: (74%)
- Severe Abdominal Pain/Discomfort: Yes, number of subjects [5, 10]: 28
- Severe Abdominal Pain/Discomfort: Yes, percent of subjects [5, 10]: (26%)
- Diarrhea: Treatment Difference ([5]; Rifaximin vs Vancomycin): −1.5%
- Fever: Treatment Difference ([5]; Rifaximin vs Vancomycin): −7.5%
- Severe Abdominal Pain/Discomfort: Treatment Difference ([5]; Rifaximin vs Vancomycin): −11.5%
- C. difficile infection, rate ([6]; All RFX Patients (n = 392), PEY = 510): (0.012) number of subjects/PEY
- C. difficile infection, rate ([6]; RCT Patients, RFX (n = 140), PEY = 50): (0.040) number of subjects/PEY
- Any infection, rate ([6]; human, in vivo): (0.072) number of subjects/PEY
- Tolerability, incidence of adverse events compared with placebo [7]: well tolerated
- Initial treatment response (IBS patients; Jolley, IBS-D patients, 1200 mg/day for 10 days): Initial treatment response: 56% (25/45)
- Re-treatment response (at least 1) (IBS patients; Jolley, IBS-D patients, 2400 mg/day for 10 days): Re-treatment response (at least 1): 54%
- Complete (>90%) relief (IBS patients; Jolley, IBS-D patients): Complete (>90%) relief: 11% (5/45)
- Complete (>90%) relief upon re-treatment (IBS patients; Jolley, IBS-D patients): re-treatment: 13% (3/24)
- Re-treatment response (at least 1) (IBS patients; Pimentel, et al., 1 to 6 re-treatments): > 75%
- Initial treatment response (IBS patients; Pimentel, et al., 169 Non-C IBS Patients (Rome III), 400-550 mg TID for 14 days): Initial treatment response: 75%
- Duration of benefit (IBS patients; Pimentel, et al.): Duration of benefit is ~4 m
- Re-treatment response, First (IBS patients; [11]): 54/65
- Re-treatment response, Second (IBS patients; [11]): 38/40
- Re-treatment response, Third (IBS patients; [11]): 17/18
- Initial treatment response (IBS patients; Weinstock, 99 Non-C IBS Patients (Rome II), 1200-1650 mg/day for 10 days): Initial treatment response: 75% (74/99)
- Patients who did not require retreatment (IBS patients; Weinstock): 27% did not require retreatment
- Patients with only 12 retreatment in 2 y (IBS patients; Weinstock): 51% only 12 retreatment in 2 y
- Patients who maintained response (IBS patients; Weinstock, for mean 1.6 y): 41%
- Mean time response was maintained (IBS patients; Weinstock, in the 41% who maintained response): 1.6 y
- Re-treatment response (at least 1) (IBS patients; Yang, et al, 1200 mg/day for 10 days): 100%
- Initial treatment response (IBS patients; Yang, et al, 84 IBS Patients (Rome I), 1200 mg/day for 10 days): Initial treatment response: 69% (58/84)
- Re-treatment response, First (IBS patients; [12]): 16/16
- Re-treatment response, Second (IBS patients; [12]): 4/4
